The subject of one test is Target 2. The test is described as follows: qPCR assay, Target 2 splicing potency (poison exon 12c inclusion). Conditions: for IC50: WT transcript; for EC50: poison exon E12c inclusion. The class given is cell-based. As for the experimental part:
(§1) A-673 or SK-N-MC cells were treated with different concentrations of SMSM compounds or DMSO for 24 hours. After the first 16 hours, cells were treated with 100 ug/ml of cycloheximide (CHX) for 8 hours to inhibit protein translation and nonsense-mediated decay (NMD). Cells were lysed with RNA lysis buffer and RNAs were purified using standard methods. After cDNA synthesis, samples were analyzed by qPCR using target transcript specific Taqman primers/probes (FIGS. 7, 19, 20, and 29). Absolute copy numbers were determined using standard curves from G-block DNA fragments (FIGS. 8, 9, and 21). Relative gene expression was determined by comparing the gene expression in the presence of an SMSM and DMSO (FIGS. 10-16 and 22-28).
(Real-time PCR tracks product formation cycle by cycle.)

A further test has as its system Target 1. The test is described as follows: qPCR assay, Target 1 splicing potency (poison exons 7b and 7c inclusion). In kind it is cell-based. Conditions: for IC50: WT transcript. Here is the method:
as §1

[1] abbreviates: poison exon E7b inclusion, read-out: Target 1 Splicing Potency E7b EC50.
[2] abbreviates: poison exon E7c inclusion, read-out: Target 1 Splicing Potency E7c EC50.

Structures are written as SMILES. Where two headings read alike, the source gives them in different places.

On to `CN(c1ccc(-c2cc(F)c(-c3cn[nH]c3)cc2O)nn1)[C@@H]1C[C@H]2CCC[C@@H](C1)N2` [SMSM 70807, 4-fluoro-2-(6-{methyl[(1R,3S,5S)-9-azabicyclo[3.3.1]nonan-3-yl]amino}pyridazin-3-yl)-5-(1H-pyrazol-4-yl)phenol], for which the values for the IC50 in the test with Target 2 and with Target 1 were 50.8 nM and 46 nM, respectively. Also, the EC50 in the test on Target 2 stood at 540 nM; with Target 1 (setting [1]), 168 nM; with Target 1 (setting [2]) it was 162 nM.

For the compound `CNC(=O)/C=C/c1cc(O)c(-c2ccc(N(C)[C@@H]3C[C@H]4CCC[C@@H](C3)N4)nn2)cc1F` [SMSM 70808, (2E)-3-{4-[6-({9-azabicyclo[3.3.1]nonan-3-yl}(methyl)amino)pyridazin-3-yl]-2-fluoro-5-hydroxyphenyl}-N-methylprop-2-enamide], the IC50 in the test on Target 2 worked out at 149 nM; in the test with Target 1, 104 nM. The 50% effective concentration (EC50) with Target 2 came to 606 nM; in the test on Target 1 (setting [1]), 47.5 nM; in the test on Target 1 (setting [2]) it was 348 nM.

As for `CN(c1ccc(-c2ccc(-c3cnn(CF)c3)cc2O)nn1)[C@H]1C[C@]2(C)CC[C@](C)(C1)N2` [SMSM 70810, 2-(6-{[(1R,3S,5S)-1,5-dimethyl-8-azabicyclo[3.2.1]octan-3-yl](methyl)amino}pyridazin-3-yl)-5-[1-(fluoromethyl)-1H-pyrazol-4-yl]phenol], the values for the IC50 in the test with Target 2 and in the test on Target 1 were 220 nM and 236 nM, respectively. The figures for the EC50 in the test on Target 2, in the test on Target 1 (setting [1]) and with Target 1 (setting [2]) were 418 nM, 180 nM and 1050 nM, respectively.

As to `COc1cc(-c2ccc(-c3ccc(N(C)[C@H]4C[C@]5(C)CC[C@](C)(C4)N5)nn3)c(O)c2)cnn1` [SMSM 70812, 2-(6-{[(1R,3S,5S)-1,5-dimethyl-8-azabicyclo[3.2.1]octan-3-yl](methyl)amino}pyridazin-3-yl)-5-(6-methoxypyridazin-4-yl)phenol], the IC50 with Target 2 was determined as 169 nM; in the test with Target 1, 178 nM. Moreover, the EC50 in the test with Target 2 amounted to 355 nM; in the test with Target 1 (setting [1]), 174 nM; with Target 1 (setting [2]), 754 nM.

For the compound `CNC(=O)/C=C/c1cc(O)c(-c2ccc(N(C)[C@H]3C[C@]4(C)CCC[C@](C)(C3)N4)nn2)cc1F` [SMSM 70813, (2E)-3-[2-fluoro-5-hydroxy-4-(6-{methyl[(1R,3S,5S)-1,5-dimethyl-9-azabicyclo[3.3.1]nonan-3-yl]amino}pyridazin-3-yl)phenyl]-N-methylprop-2-enamide], the values for the IC50 in the test on Target 2 and in the test with Target 1 were 162 nM and 99.1 nM, respectively. The EC50 is 126 nM in the test with Target 2, 41 nM with Target 1 (setting [1]) and 310 nM with Target 1 (setting [2]).

Regarding `CN(c1ccc(-c2ccc(-c3ccn(C)c(=O)c3)cc2O)nn1)[C@H]1C[C@]2(C)CCC[C@](C)(C1)N2` [SMSM 70814, 4-[3-hydroxy-4-(6-{methyl[(1R,3S,5S)-1,5-dimethyl-9-azabicyclo[3.3.1]nonan-3-yl]amino}pyridazin-3-yl)phenyl]-1-methyl-1,2-dihydropyridin-2-one], the figures for the IC50 in the test with Target 2 and in the test on Target 1 were 110 nM and 102 nM, respectively. The EC50 in the test with Target 1 (setting [1]) is 89.2 nM; with Target 1 (setting [2]), 538 nM.

With `CN(c1ccc(-c2cc(F)c(-c3ccn(C)c(=O)c3)cc2O)nn1)[C@H]1C[C@]2(C)CCC[C@](C)(C1)N2` [SMSM 70815, 4-[2-fluoro-5-hydroxy-4-(6-{methyl[(1R,3S,5S)-1,5-dimethyl-9-azabicyclo[3.3.1]nonan-3-yl]amino}pyridazin-3-yl)phenyl]-1-methyl-1,2-dihydropyridin-2-one], the IC50 in the test with Target 2 was 116 nM; with Target 1 it was 105 nM. Besides, the EC50 was 238 nM with Target 2, 59.8 nM in the test on Target 1 (setting [1]) and 423 nM with Target 1 (setting [2]).

Take `CN(c1ccc(-c2cc(F)c(-c3cc(=O)n(C)cn3)cc2O)nn1)[C@H]1C[C@]2(C)CC[C@](C)(C1)N2` [SMSM 70816, 6-(4-(6-(((1R,3S,5S)-1,5-dimethyl-8-azabicyclo[3.2.1]octan-3-yl)(methyl)amino)pyridazin-3-yl)-2-fluoro-5-hydroxyphenyl)-3-methylpyrimidin-4(3H)-one]: the values for the IC50 in the test on Target 2 and in the test on Target 1 were 225 nM and 215 nM, respectively. The EC50 was found to be 634 nM with Target 2, 171 nM in the test with Target 1 (setting [1]) and 737 nM in the test with Target 1 (setting [2]).

As to `COc1cc(-c2ccc(-c3ccc(N(C)[C@H]4C[C@]5(C)CC[C@](C)(C4)N5)nn3)c(O)c2)ncn1` [SMSM 70817, 2-(6-{[(1R,3S,5S)-1,5-dimethyl-8-azabicyclo[3.2.1]octan-3-yl](methyl)amino}pyridazin-3-yl)-5-(6-methoxypyrimidin-4-yl)phenol], the IC50 turned out to be 930 nM in the test with Target 2 and 707 nM with Target 1. Also, the EC50 was 1160 nM in the test on Target 2, 941 nM in the test with Target 1 (setting [1]) and 2910 nM in the test on Target 1 (setting [2]).

For the compound `CN(c1ccc(-c2cc(F)c(-c3ccn(CF)c(=O)c3)cc2O)nn1)[C@H]1C[C@]2(C)CCC[C@](C)(C1)N2` [SMSM 70819, 4-[2-fluoro-5-hydroxy-4-(6-{methyl[(1R,3S,5S)-1,5-dimethyl-9-azabicyclo[3.3.1]nonan-3-yl]amino}pyridazin-3-yl)phenyl]-1-(fluoromethyl)-1,2-dihydropyridin-2-one], the IC50 in the test on Target 2 was found to be 94.7 nM; with Target 1, 93.9 nM. Also, the results for the EC50 in the test on Target 2, in the test on Target 1 (setting [1]) and in the test on Target 1 (setting [2]) were 92.9 nM, 88 nM and 293 nM, respectively.

In the case of `COc1cc(-c2ccc(-c3ccc(N(C)[C@H]4C[C@]5(C)CCC[C@](C)(C4)N5)nn3)c(O)c2)cnn1` [SMSM 70820, 5-(6-methoxypyridazin-4-yl)-2-(6-{methyl[(1R,3S,5S)-1,5-dimethyl-9-azabicyclo[3.3.1]nonan-3-yl]amino}pyridazin-3-yl)phenol], the IC50 turned out to be 166 nM in the test with Target 2 and 142 nM in the test on Target 1. The EC50 with Target 2 was found to be 530 nM; with Target 1 (setting [1]) it was 111 nM; with Target 1 (setting [2]) it was 627 nM.

On to `CNC(=O)/C=C/c1cc(O)c(-c2ccc(N(C3CC3)[C@H]3C[C@]4(C)CC[C@](C)(C3)N4)nn2)cc1F` [SMSM 70823, (E)-3-(4-(6-(cyclopropyl((1R,3S,5S)-1,5-dimethyl-8-azabicyclo[3.2.1]octan-3-yl)amino)pyridazin-3-yl)-2-fluoro-5-hydroxyphenyl)-N-methylacrylamide], for which the IC50 in the test with Target 2 was found to be 463 nM; with Target 1, 328 nM. The EC50 amounted to 344 nM in the test with Target 2, 170 nM in the test on Target 1 (setting [1]) and 898 nM in the test on Target 1 (setting [2]).

Turning to `CNC(=O)c1ccc2cc(-c3ccc(N(C)[C@H]4C[C@]5(C)CCC[C@](C)(C4)N5)nn3)c(O)cc2n1` [SMSM 70824, 7-hydroxy-N-methyl-6-(6-{methyl[(1R,3S,5S)-1,5-dimethyl-9-azabicyclo[3.3.1]nonan-3-yl]amino}pyridazin-3-yl)quinoline-2-carboxamide], the IC50 with Target 2 was 54 nM; in the test on Target 1, 27.6 nM. For the same compound, the EC50 turned out to be 46.1 nM in the test with Target 2, 9.3 nM with Target 1 (setting [1]) and 60.2 nM in the test on Target 1 (setting [2]).

`CNC(=O)/C=C/c1cc(O)c(-c2ccc(N(C3CC3)[C@H]3C[C@]4(C)CCC[C@](C)(C3)N4)nn2)cc1F` [SMSM 70826, (2E)-3-[4-(6-{cyclopropyl[(1R,3S,5S)-1,5-dimethyl-9-azabicyclo[3.3.1]nonan-3-yl]amino}pyridazin-3-yl)-2-fluoro-5-hydroxyphenyl]-N-methylprop-2-enamide]: the IC50 came to 337 nM with Target 2 and 177 nM with Target 1. The EC50 was determined as 304 nM in the test with Target 2, 257 nM in the test on Target 1 (setting [1]) and 887 nM with Target 1 (setting [2]).

What is called IC50 is the concentration needed to halve the response being measured. The low end stands for inhibition by little substance, the high end for a need for much substance. For orientation: EC50 means the concentration that produces a half-maximal response.

The record behind these values is patent US11129829B2, “Methods for modulating splicing” (Skyhawk Therapeutics, Inc., priority 2019, dated 2021).
